# Source: US9616129B2, “Compositions and methods for potentiating immune response, enhancing immunotherapy, and increasing vaccine potency” (Nitor Therapeutics, priority 2013, dated 2017)
# How the values were obtained:
# Type in all cases: cell-based
# [1] = target: T1, human TLR8 (Homo sapiens, UniProt Q9NR97); assay: TLR ligand screening, NF-κB SEAP reporter in HEK293 cells expressing TLR8; conditions: one concentration: NTR001 10 uM, Inosine 100 uM; FIG. 2
# T1 construct: expressed in transfected cells; host or cells: HEK293
# T1 sequence (Q9NR97 27-1041): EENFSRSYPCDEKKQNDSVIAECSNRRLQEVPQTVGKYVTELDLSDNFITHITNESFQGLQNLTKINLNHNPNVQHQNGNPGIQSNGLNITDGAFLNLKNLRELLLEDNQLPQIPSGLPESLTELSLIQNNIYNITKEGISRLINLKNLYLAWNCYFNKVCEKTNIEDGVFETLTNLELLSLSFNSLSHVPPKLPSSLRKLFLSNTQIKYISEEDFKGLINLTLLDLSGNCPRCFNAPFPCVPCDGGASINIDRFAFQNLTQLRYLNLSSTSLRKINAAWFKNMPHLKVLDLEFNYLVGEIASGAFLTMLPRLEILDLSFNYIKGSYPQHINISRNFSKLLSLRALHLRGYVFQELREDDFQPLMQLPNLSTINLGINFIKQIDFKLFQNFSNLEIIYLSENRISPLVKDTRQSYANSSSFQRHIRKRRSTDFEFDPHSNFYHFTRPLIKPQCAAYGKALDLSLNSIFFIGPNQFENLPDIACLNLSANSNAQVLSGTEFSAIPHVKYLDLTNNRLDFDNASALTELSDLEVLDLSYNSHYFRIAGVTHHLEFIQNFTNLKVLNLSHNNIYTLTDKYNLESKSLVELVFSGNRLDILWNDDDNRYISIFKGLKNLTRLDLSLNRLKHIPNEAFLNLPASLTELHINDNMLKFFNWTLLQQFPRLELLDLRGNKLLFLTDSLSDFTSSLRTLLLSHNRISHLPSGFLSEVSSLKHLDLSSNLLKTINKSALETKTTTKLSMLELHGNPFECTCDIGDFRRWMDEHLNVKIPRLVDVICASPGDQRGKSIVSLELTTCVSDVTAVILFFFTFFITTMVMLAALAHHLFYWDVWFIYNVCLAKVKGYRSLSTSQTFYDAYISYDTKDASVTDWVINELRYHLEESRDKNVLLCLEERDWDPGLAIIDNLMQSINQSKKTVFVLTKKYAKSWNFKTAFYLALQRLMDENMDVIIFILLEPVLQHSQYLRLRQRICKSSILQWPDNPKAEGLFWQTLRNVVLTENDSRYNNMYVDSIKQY
# Description: (§1) TLR stimulation is tested by assessing NF-κB activation in HEK293 cells expressing a given TLR. The Secreted Embryonic Alkaline Phosphatase (SEAP) reporter is under the control of a promoter inducible by the transcription factor NF-κB. This reporter gene allows the monitoring of signaling through the TLR, based on the activation of NF-κB. The compounds are evaluated at one concentration and compared to control ligands. This step is performed in triplicate.
# [2] = target: T2, human TLR4 (Homo sapiens, UniProt O00206); assay: TLR ligand screening, NF-κB SEAP reporter in HEK293 cells expressing TLR4; conditions: one concentration: Guanosine 100 uM, NTR001 10 uM, Inosine 100 uM; FIG. 2
# T2 construct: expressed in transfected cells; host or cells: HEK293
# T2 sequence (O00206 24-839): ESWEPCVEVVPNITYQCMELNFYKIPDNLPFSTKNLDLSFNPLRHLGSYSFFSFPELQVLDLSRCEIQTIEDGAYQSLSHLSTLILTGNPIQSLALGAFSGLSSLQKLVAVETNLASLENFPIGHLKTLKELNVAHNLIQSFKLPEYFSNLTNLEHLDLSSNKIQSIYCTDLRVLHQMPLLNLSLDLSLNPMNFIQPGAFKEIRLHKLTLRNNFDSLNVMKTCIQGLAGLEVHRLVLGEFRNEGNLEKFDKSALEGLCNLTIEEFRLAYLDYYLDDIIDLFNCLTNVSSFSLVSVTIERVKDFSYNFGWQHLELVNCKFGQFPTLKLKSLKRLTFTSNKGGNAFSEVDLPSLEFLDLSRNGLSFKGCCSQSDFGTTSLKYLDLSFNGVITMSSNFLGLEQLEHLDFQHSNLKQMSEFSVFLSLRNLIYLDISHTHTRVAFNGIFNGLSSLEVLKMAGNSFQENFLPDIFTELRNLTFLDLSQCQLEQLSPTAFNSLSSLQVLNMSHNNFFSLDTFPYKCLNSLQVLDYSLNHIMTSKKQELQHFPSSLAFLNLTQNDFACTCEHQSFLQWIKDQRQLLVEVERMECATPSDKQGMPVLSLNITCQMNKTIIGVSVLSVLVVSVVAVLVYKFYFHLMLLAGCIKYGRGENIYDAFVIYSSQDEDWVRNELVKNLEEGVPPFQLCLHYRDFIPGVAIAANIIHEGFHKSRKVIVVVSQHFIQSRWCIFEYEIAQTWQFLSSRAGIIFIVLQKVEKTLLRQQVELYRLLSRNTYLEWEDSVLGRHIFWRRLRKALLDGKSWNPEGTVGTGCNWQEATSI
# T2 sequence (Q9Y6Y9 17-160 partner limits assumed): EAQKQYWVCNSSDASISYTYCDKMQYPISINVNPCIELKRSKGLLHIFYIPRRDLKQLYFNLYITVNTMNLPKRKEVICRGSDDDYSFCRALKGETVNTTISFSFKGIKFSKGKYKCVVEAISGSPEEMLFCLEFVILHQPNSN
# Description: as §1
# [3] = target: T3, human TLR9 (Homo sapiens, UniProt Q9NR96); assay: TLR ligand screening, NF-κB SEAP reporter in HEK293 cells expressing TLR9; conditions: one concentration: NTR001 10 uM, Inosine 100 uM; FIG. 2
# T3 construct: expressed in transfected cells; host or cells: HEK293
# T3 sequence (Q9NR96 26-1032): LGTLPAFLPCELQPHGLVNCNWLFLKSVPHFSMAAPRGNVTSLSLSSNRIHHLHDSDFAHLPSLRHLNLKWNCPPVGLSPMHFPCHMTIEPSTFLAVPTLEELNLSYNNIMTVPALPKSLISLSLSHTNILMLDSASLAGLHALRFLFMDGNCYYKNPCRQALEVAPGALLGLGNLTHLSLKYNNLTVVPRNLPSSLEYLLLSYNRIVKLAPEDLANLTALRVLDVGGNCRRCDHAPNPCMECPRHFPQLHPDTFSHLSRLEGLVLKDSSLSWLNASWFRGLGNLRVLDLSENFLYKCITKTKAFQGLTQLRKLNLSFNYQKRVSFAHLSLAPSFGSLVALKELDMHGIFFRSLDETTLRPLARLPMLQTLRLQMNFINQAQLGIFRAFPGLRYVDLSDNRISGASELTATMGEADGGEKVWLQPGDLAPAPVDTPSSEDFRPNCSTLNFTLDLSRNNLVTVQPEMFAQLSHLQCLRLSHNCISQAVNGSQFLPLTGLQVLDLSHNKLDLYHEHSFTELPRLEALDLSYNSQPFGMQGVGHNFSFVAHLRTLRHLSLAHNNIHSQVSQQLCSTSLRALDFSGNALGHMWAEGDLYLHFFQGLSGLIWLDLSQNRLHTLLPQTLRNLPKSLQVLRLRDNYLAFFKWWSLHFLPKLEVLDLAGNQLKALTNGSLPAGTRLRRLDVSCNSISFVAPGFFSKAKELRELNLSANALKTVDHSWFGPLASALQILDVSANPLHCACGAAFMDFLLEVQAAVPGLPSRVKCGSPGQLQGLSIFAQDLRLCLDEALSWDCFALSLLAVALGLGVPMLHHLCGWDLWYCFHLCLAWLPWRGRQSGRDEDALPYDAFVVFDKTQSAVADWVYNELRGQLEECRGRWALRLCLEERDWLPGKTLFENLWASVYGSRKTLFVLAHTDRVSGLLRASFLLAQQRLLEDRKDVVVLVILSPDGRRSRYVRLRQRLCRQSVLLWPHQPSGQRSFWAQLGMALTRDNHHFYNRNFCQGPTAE
# Description: as §1
SMILES,stimulatory effect on human TLR8 (NF-κB activation) [1],stimulatory effect on human TLR4 (NF-κB activation) [2],stimulatory effect on human TLR9 (NF-κB activation) [3]
"O=c1[nH]cnc2c([C@@H]3N[C@H](CO)[C@@H](O)[C@H]3O)c[nH]c12 [NTR001, 7-[(2S,3S,4R,5R)-3,4-dihydroxy-5-(hydroxymethyl)-2-pyrrolidinyl]-1,5-dihydro-4H-pyrrolo[3,2-d]pyrimidin-4-one]",do not exhibit a stimulatory effect,do not exhibit a stimulatory effect,do not exhibit a stimulatory effect
OC[C@H]1O[C@@H](n2cnc3c(O)ncnc32)[C@H](O)[C@@H]1O [Inosine],do not exhibit a stimulatory effect,do not exhibit a stimulatory effect,do not exhibit a stimulatory effect
